Measured values from US20220142958A1, “MEDICINAL COMPOSITION HAVING EXCELLENT STABILITY” (EA Pharma Co., Ltd., priority 2019, published 2022).

How the values were obtained:
[1] = tested on: healthy Japanese male adults; experiment: Phase I clinical trial (P1), single intravenous dose; assay type: in vivo, human
Description: Thirty-two healthy Japanese male adults were given a single intravenous dose of the test drug (Compound A1) at 0.01 mg, 0.1 mg, 1.0 mg or 2.5 mg in a fasted state to study the pharmacokinetics, pharmacodynamics and safety by a double-blind test using a placebo as a control. Here, the trial drug was administered by diluting a required dose taken from the Compound A1 vial formulation prepared as follows with sterilized water for injection, and filling a syringe with the resultant in accordance with the dose to be administered.
A vial formulation encapsulating 100 mg of Compound A1 in terms of a dehydrate, and sodium chloride, disodium hydrogen phosphate dodecahydrate, and sodium dihydrogen phosphate dihydrate as additives in 10 ml of sterilized water for injection

[2] = Example 4A: residual ratio and reaction rate constant after storage at 60° C.; assay type: physicochemical; conditions: for Reaction rate constant at 60° C. / Residual ratio (%): 0.1 mg/mL
Description: Compound A1 was dissolved in each of the buffer solutions shown in Table 10 so that a concentration was 0.1 mg/mL. Each of these solutions was dispensed into a glass vial and stored at 60° C. After the storage, a residual ratio was calculated according to a test method described below.
(§1) Test method: In the solution after the storage, the residual ratio was analyzed according to a normal method using a liquid chromatography apparatus Prominence (manufactured by Shimadzu Corporation) and an ultraviolet absorptiometer (measurement wavelength: 254 nm, Prominence (manufactured by Shimadzu Corporation)). At this time, SUMIPAX ODS (3 mm×150 mm, 5 μm, manufactured by SCAS) was used as a column.
The calculation for obtaining the residual ratio (%) of Compound A1 during each storage period is as follows.
Residual ratio (%) of Compound A1 during each storage period=peak area of Compound A1 in sample solution/peak area of Compound A1 in standard solution×100
Here, “Compound A1 in standard solution” refers to a solution obtained by dissolving Compound A1 in each of the buffer solutions shown in Table 10 so that a concentration was 0.1 mg/mL, and then storing the solution at 5° C. It was clear from the results of Example 1 that the solution of Compound A1 was stable when being stored at 5° C., and thus, the solution was used as the standard solution.
The reaction rate constant at 60° C. was calculated using the obtained residual ratio.

[3] = Example 1B: residual ratio of Compound A1 at 2 concentrations stored at 5° C.; assay type: physicochemical
Description: According to Table 3 below, Compound A1 was dissolved in each of the buffer solutions at 2 concentrations. Each of these solutions was dispensed into a glass vial and stored at 5° C. After the storage, a residual ratio of Compound A1 was calculated according to a test method described below.
as §1
(§2) The residual ratio (%) of Compound A1 during each storage period at 5° C. was calculated as follows.
(§3) Residual ratio (%) of Compound A1 during each storage period=peak area of Compound A1 in sample solution/sum of peak area of sample solution×100

[4] = Example 1A: residual ratio of Compound A1 in buffer solutions stored at 5° C.; assay type: physicochemical; conditions: for Residual ratio (%): 0.1 mg/mL
Description: Compound A1 was dissolved in each of the buffer solutions so that a concentration was 0.1 mg/mL. Each of these solutions was dispensed into a glass vial and stored at 5° C. After the storage, a residual ratio was calculated according to a test method described below.
as §1, §2, §3

male beagles = experiment: Emetogenicity of Compound A1 in dogs; assay type: in vivo, dog; conditions: for Number of vomiting cases/Number of administration: Intravenous
Description: A crossover trial was conducted with male beagles (Nosan Beagle, 14 to 87-month-old, weight: 10.2 kg to 15.8 kg). The Compound A1 solutions used in Reference Example 2 were given at 0.3, 1 and 10 mg/kg by bolus administration (0.5 mL/kg, 1 mL/sec) to 3 to 6 dogs per dose to confirm the manifestation of vomiting immediately after the administration. Administration was conducted once or twice a week with an interval of 2 days or longer. Administration was conducted prior to feeding. Symptoms prior to, immediately after, and 15 and 30 minutes after the administration were observed.

[5] = single intravenous doses of 0.01, 0.1, 1.0 and 2.5 mg

With `Cc1c(Cl)cc(S(=O)(=O)[O-])cc1NC(=O)NC[C@H](N)C(=O)O.[Na+]` [Compound A1, sodium 3-{[(2S)-2-amino-2-carboxyethyl]carbamoylamino}-5-chloro-4-methylbenzenesulfonate] the “serum iPTH concentration compared to that before the administration” value ([1]; 0.01 mg and higher dose groups) was “decreased”, the “safety (side effects)” value ([1]; 1.0 mg and higher dose groups) was “non-severe and mild side effects such as vomiting” and the “duration of decreased serum iPTH concentration” value ([1]; relation to given dose) was “extended with the increase in the given dose”. The “form excreted into the urine” value ([1]; single intravenous doses) was “mostly as unchanged substances”, the “main elimination pathway of the unchanged substance” value ([1]; single intravenous doses) was “renal excretion” and the “elimination from the plasma” value [1, 5] was “rapidly eliminated”. For the same compound, the “form present in the plasma” value [1, 5] was “generally unchanged substances”, the “Reaction rate constant at 60° C.” value ([2]; pH 1.1) was 6.3 × 10^−4 and the “Residual ratio (%)” value ([2]; pH 1.1, 60° C., 24 hours) was 97.8%. For the same compound, the “Residual ratio (%)” value ([2]; pH 1.1, 60° C., 113 hours) was 92.7%, the “Residual ratio (%)” value ([2]; pH 1.1, 60° C., 161 hours) was 90.2% and the “Reaction rate constant at 60° C.” value ([2]; pH 2.0) was 6.5 × 10^−4. For the same compound, the “Residual ratio (%)” value ([2]; pH 2.0, 60° C., 24 hours) was 98.1%, the “Residual ratio (%)” value ([2]; pH 2.0, 60° C., 113 hours) was 92.4% and the “Residual ratio (%)” value ([2]; pH 2.0, 60° C., 161 hours) was 90.1%. For the same compound, the “Reaction rate constant at 60° C.” value ([2]; pH 3.0) was 7.5 × 10^−4, the “Residual ratio (%)” value ([2]; pH 3.0, 60° C., 24 hours) was 98.3% and the “Residual ratio (%)” value ([2]; pH 3.0, 60° C., 113 hours) was 91.5%. For the same compound, the “Residual ratio (%)” value ([2]; pH 3.0, 60° C., 161 hours) was 88.9%, the “Reaction rate constant at 60° C.” value ([2]; pH 4.0) was 7.6 × 10^−4 and the “Residual ratio (%)” value ([2]; pH 4.0, 60° C., 24 hours) was 98.1%. For the same compound, the “Residual ratio (%)” value ([2]; pH 4.0, 60° C., 113 hours) was 91.5%, the “Residual ratio (%)” value ([2]; pH 4.0, 60° C., 161 hours) was 88.5% and the “Reaction rate constant at 60° C.” value ([2]; pH 5.0) was 7.9 × 10^−4. The “Residual ratio (%)” value ([2]; pH 5.0, 60° C., 24 hours) was 98.0%, the “Residual ratio (%)” value ([2]; pH 5.0, 60° C., 113 hours) was 91.3% and the “Residual ratio (%)” value ([2]; pH 5.0, 60° C., 161 hours) was 88.0%. For the same compound, the “Reaction rate constant at 60° C.” value ([2]; pH 6.0) was 7.8 × 10^−4, the “Residual ratio (%)” value ([2]; pH 6.0, 60° C., 24 hours) was 98.1% and the “Residual ratio (%)” value ([2]; pH 6.0, 60° C., 113 hours) was 91.5%. For the same compound, the “Residual ratio (%)” value ([2]; pH 6.0, 60° C., 161 hours) was 88.3%, the “Reaction rate constant at 60° C.” value ([2]; pH 7.0) was 8.2 × 10^−4 and the “Residual ratio (%)” value ([2]; pH 7.0, 60° C., 24 hours) was 98.2%. The “Residual ratio (%)” value ([2]; pH 7.0, 60° C., 113 hours) was 91.0%, the “Residual ratio (%)” value ([2]; pH 7.0, 60° C., 161 hours) was 87.8% and the “change of reaction rate constant at 60° C. when the pH of the formulation was changed” value ([2]; pH 1.1 to 7.0) was “not significantly changed”. For the same compound, the “Residual ratio (%)” value ([3]; 0.1 mg/mL, pH 1.1, 5° C., 23 hours) was 100%, the “Residual ratio (%)” value ([3]; 0.1 mg/mL, pH 1.1, 5° C., 141 hours) was 100% and the “Residual ratio (%)” value ([3]; 0.1 mg/mL, pH 1.1, 5° C., 570 hours) was 100%. The “Residual ratio (%)” value ([3]; 0.1 mg/mL, pH 7.0, 5° C., 23 hours) was 100%, the “Residual ratio (%)” value ([3]; 0.1 mg/mL, pH 7.0, 5° C., 141 hours) was 100% and the “Residual ratio (%)” value ([3]; 0.1 mg/mL, pH 7.0, 5° C., 570 hours) was 100%. The “Residual ratio (%)” value ([3]; 10 mg/mL, pH 1.1, 5° C., 23 hours) was 100%, the “Residual ratio (%)” value ([3]; 10 mg/mL, pH 1.1, 5° C., 141 hours) was 100% and the “Residual ratio (%)” value ([3]; 10 mg/mL, pH 1.1, 5° C., 570 hours) was 100%. For the same compound, the “Residual ratio (%)” value ([3]; 10 mg/mL, pH 7.0, 5° C., 23 hours) was 100%, the “Residual ratio (%)” value ([3]; 10 mg/mL, pH 7.0, 5° C., 141 hours) was 100% and the “Residual ratio (%)” value ([3]; 10 mg/mL, pH 7.0, 5° C., 570 hours) was 100%. For the same compound, the “stability of the formulation” value ([3]; pH of 1.1 and pH of 7.0, 5° C., regardless of the concentration) was “stable”, the “Residual ratio (%)” value ([4]; pH 1.1, 5° C., 24 hours) was 100% and the “Residual ratio (%)” value ([4]; pH 1.1, 5° C., 113 hours) was 100%. The “Residual ratio (%)” value ([4]; pH 1.1, 5° C., 161 hours) was 100%, the “Residual ratio (%)” value ([4]; pH 2.0, 5° C., 24 hours) was 100% and the “Residual ratio (%)” value ([4]; pH 2.0, 5° C., 113 hours) was 100%. For the same compound, the “Residual ratio (%)” value ([4]; pH 2.0, 5° C., 161 hours) was 100%, the “Residual ratio (%)” value ([4]; pH 3.0, 5° C., 24 hours) was 100% and the “Residual ratio (%)” value ([4]; pH 3.0, 5° C., 113 hours) was 100%. For the same compound, the “Residual ratio (%)” value ([4]; pH 3.0, 5° C., 161 hours) was 100%, the “Residual ratio (%)” value ([4]; pH 4.0, 5° C., 24 hours) was 100% and the “Residual ratio (%)” value ([4]; pH 4.0, 5° C., 113 hours) was 100%. For the same compound, the “Residual ratio (%)” value ([4]; pH 4.0, 5° C., 161 hours) was 100%, the “Residual ratio (%)” value ([4]; pH 5.0, 5° C., 24 hours) was 100% and the “Residual ratio (%)” value ([4]; pH 5.0, 5° C., 113 hours) was 100%. The “Residual ratio (%)” value ([4]; pH 5.0, 5° C., 161 hours) was 100%, the “Residual ratio (%)” value ([4]; pH 6.0, 5° C., 24 hours) was 100% and the “Residual ratio (%)” value ([4]; pH 6.0, 5° C., 113 hours) was 100%. For the same compound, the “Residual ratio (%)” value ([4]; pH 6.0, 5° C., 161 hours) was 100%, the “Residual ratio (%)” value ([4]; pH 7.0, 5° C., 24 hours) was 100% and the “Residual ratio (%)” value ([4]; pH 7.0, 5° C., 113 hours) was 100%. For the same compound, the “Residual ratio (%)” value ([4]; pH 7.0, 5° C., 161 hours) was 100%, the “stability of the formulation” value ([4]; pH of 1.1 to 7.0, 5° C.) was “stable” and the “Number of vomiting cases/Number of administration” value (male beagles; 0.3 mg/kg) was 0/3. For the same compound, the “Number of vomiting cases/Number of administration” value (male beagles; 1 mg/kg) was 0/3, the “Number of vomiting cases/Number of administration” value (male beagles; 10 mg/kg) was 1/6 and the “therapeutic margin with respect to vomiting (dog C0 vs human C0)” value (male beagles; dog 1 mg/kg vs human 0.1 mg/man) was ≥ 430 times.
